# According to patent US9073940B2, “Tricyclic pyrazol amine derivatives” (MERCK SERONO SA, priority 2009, dated 2015):
# Counter-ions that a name gives are not always drawn.
# Tested on: 4 PI3K isoforms (Human recombinant GST-PI3K)
# Assay: PI3K scintillation proximity assay, best IC50 obtained with the four isoforms (alpha, beta, delta, gamma)
# Assay type: biochemical
# Conditions: best IC50 obtained with the four isoforms of PI3K; read-out: Best potency measured on the 4 PI3K isoforms
row,SMILES,IC50 [nM]
1,O=C(c1nn([C@H]2CCCN(C(=O)C3CCOCC3)C2)c2c1CS(=O)(=O)c1ccccc1-2)N1CCOCC1 [Example 397],1500
2,"CC(C)CCOC1CCN(Cc2cccc(-n3nc(C(=O)N4CCOCC4)c4c3-c3ccccc3S(=O)(=O)C4)c2)C1 (stereo not shown) [Example 235, 1-(3-{[3-(3-Methylbutoxy)pyrrolidin-1-yl]methyl}phenyl)-3-(morpholin-4-ylcarbonyl)-1,4-dihydrothiochromeno[4,3-c]pyrazole 5,5-dioxide]",389
3,"CCC1c2c(C(=O)N3CCOCC3)nn(-c3ccccc3)c2-c2ccccc2S1(=O)=O (stereo not shown) [Example 59, 4-ethyl-3-(morpholin-4-ylcarbonyl)-1-phenyl-1,4-dihydrothiochromeno[4,3-c]pyrazole 5,5-dioxide]",2470
4,"Cn1nc(C(=O)N2CCOCC2)c2c1-c1ccccc1S(=O)(=O)C2Cc1ccccc1 (stereo not shown) [Example 111, 4-Benzyl-1-methyl-3-(morpholin-4-ylcarbonyl)-1,4-dihydrothiochromeno[4,3-c]pyrazole 5,5-dioxide]",5270
5,"CN1CCC(Cn2nc(C(=O)N3CCOCC3)c3c2-c2ccccc2S(=O)(=O)C3)CC1 [Example 208, 1-[(1-Methylpiperidin-4-yl)methyl]-3-(morpholin-4-ylcarbonyl)-1,4-dihydrothiochromeno[4,3-c]pyrazole 5,5-dioxide]",2650
6,"COC1CCCN(C(=O)c2cccc(-n3nc(C(=O)N4CCOCC4)c4c3-c3ccccc3S(=O)(=O)C4)c2)C1 (stereo not shown) [Example 159, 1-{3-[(3-Methoxypiperidin-1-yl)carbonyl]phenyl}-3-(morpholin-4-ylcarbonyl)-1,4-dihydrothiochromeno[4,3-c]pyrazole 5,5-dioxide]",246
7,"Cc1ccccc1-n1nc(C(=O)N2CCOCC2)c2c1-c1ccccc1S(=O)(=O)C2 [Example 19, 1-(2-methylphenyl)-3-(morpholin-4-ylcarbonyl)-1,4-dihydrothiochromeno[4,3-c]pyrazole 5,5-dioxide]",2280
8,O=C(c1ccoc1)N1CCC[C@H](n2nc(C(=O)N3CCOCC3)c3c2-c2ccccc2S(=O)(=O)C3)C1 [Example 396],750
9,"COC(=O)c1ccc(Cn2nc(C(=O)N3CCOCC3)c3c2-c2ccccc2S(=O)(=O)C3)o1 [Example 231, Methyl 5-{[3-(morpholin-4-ylcarbonyl)-5,5-dioxidothiochromeno[4,3-c]pyrazol-1(4H)-yl]methyl}-2-furoate]",431
10,"O=C(c1cccc(-n2nc(C(=O)N3CCOCC3)c3c2-c2ccccc2S(=O)(=O)C3)c1)N1CCC(O)CC1 [Example 143, 1-{3-[3-(Morpholin-4-ylcarbonyl)-5,5-dioxidothiochromeno[4,3-c]pyrazol-1 (4H)-yl]benzoyl}piperidin-4-ol]",371
11,O=C(c1nn(-c2ccc(CN3CCOCC3)cc2)c2c1CS(=O)(=O)c1ncccc1-2)N1CCOCC1 [Example 211],400
12,"O=C(c1cccc(-n2nc(C(=O)N3CCOCC3)c3c2-c2ccccc2S(=O)(=O)C3)c1)N1CCS(=O)(=O)CC1 [Example 146, 1-{3-[(1,1-Dioxidothiomorpholin-4-yl)carbonyl]phenyl}-3-(morpholin-4-ylcarbonyl)-1,4-dihydrothiochromeno[4,3-c]pyrazole 5,5-dioxide]",319
13,"Cn1cc(-n2nc(C(=O)N3CCOCC3)c3c2-c2ccsc2S(=O)(=O)C3)ccc1=O [Example 195, 1-Methyl-5-[3-(morpholin-4-ylcarbonyl)-5,5-dioxidothieno[3′,2′:5,6]thiopyrano[4,3-c]pyrazole-1 (4H)-yl]pyridin-2 (1H)-one]",2690
14,"O=C(c1nn(-c2cccc(-c3ccccc3)c2)c2c1CS(=O)(=O)c1ccccc1-2)N1CCOCC1 [Example 157, 1-Biphenyl-3-yl-3-(morpholin-4-ylcarbonyl)-1,4-dihydrothiochromeno[4,3-c]pyrazole 5,5-dioxide]",764
15,"O=C(c1nn([C@@H]2CCCN(CCC3CCOCC3)C2)c2c1CS(=O)(=O)c1c(F)cccc1-2)N1CCOCC1 (single isomer, unassigned) [Example 343, 6-fluoro-3-(morpholin-4-ylcarbonyl)-1-{1-[2-(tetrahydro-2H-pyran-4-yl)ethyl]piperidin-3-yl}-1,4-dihydrothiochromeno[4,3-c]pyrazole 5,5-dioxide hydrochloride salt]",1920
16,"CS(=O)(=O)Nc1cccc(-n2nc(C(=O)N3CCOCC3)c3c2-c2ccccc2S(=O)(=O)C3)c1 [Example 180, N-{3-[3-(Morpholin-4-ylcarbonyl)-5,5-dioxidothiochromeno[4,3-c]pyrazol-1 (4H)-yl]phenyl)methanesulfonamide]",1780
17,"O=C(c1nn(-c2cccc(-c3cnn(CCN4CCOCC4)c3)c2)c2c1CS(=O)(=O)c1ccccc1-2)N1CCOCC1 [Example 188, 3-(Morpholin-4-ylcarbonyl)-1-{3-[1-(2-morpholin-4-ylethyl)-1H-pyrazol-4-yl]phenyl)-1,4-dihydrothiochromeno[4,3-c]pyrazole 5,5-dioxide]",338
18,"O=C(c1nn(C2CCCN(CCO)C2)c2c1CS(=O)(=O)c1ccccc1-2)N1CCOCC1 (stereo not shown) [Example 134, 2-{3-[3-(Morpholin-4-ylcarbonyl)-5,5-dioxidothiochromeno[4,3-c]pyrazol-1 (4H)-yl]piperidin-1-yl}ethanol]",815
19,"O=C(c1nn(-c2ccc(CN3CCOCC3)nc2)c2c1CS(=O)(=O)c1ccccc1-2)N1CCOCC1 [Example 216, 3-(Morpholin-4-ylcarbonyl)-1-[6-(morpholin-4-ylmethyl)pyridin-3-yl]-1,4-dihydrothiochromeno[4,3-c]pyrazole 5,5-dioxide]",614
20,"Cc1ccc(F)cc1-n1nc(C(=O)N2CCOCC2)c2c1-c1ccccc1S(=O)(=O)C2 [Example 8, 1-(5-fluoro-2-methylphenyl)-3-(morpholin-4-ylcarbonyl)-1,4-dihydrothiochromeno[4,3-c]pyrazole 5,5-dioxide]",4200
21,"COCCNc1ccc2c(c1)-c1c(c(C(=O)N3CCOCC3)nn1-c1ccccc1)CS2(=O)=O [Example 156, N-(2-Methoxyethyl)-3-(morpholin-4-ylcarbonyl)-1-phenyl-1,4-dihydrothiochromeno[4,3-c]pyrazol-8-amine 5,5-dioxide]",902

# Continued, values first:
row,IC50 [nM],SMILES
1,238,"O=C(c1ccc(-n2nc(C(=O)N3CCOCC3)c3c2-c2ccccc2S(=O)(=O)C3)cc1)N1CCCCC1 [Example 151, 3-(Morpholin-4-ylcarbonyl)-1-[4-(piperidin-1-ylcarbonyl)phenyl]-1,4-dihydrothiochromeno[4,3-c]pyrazole 5,5-dioxide]"
2,45,"COCCN(C)CCN1CCC[C@H](n2nc(C(=O)N3CCOCC3)c3c2-c2ccccc2S(=O)(=O)C3)C1 (stereo in doubt) [Example 438, 2-methoxy-N-methyl-N-(2-{3-[3-(morpholin-4-ylcarbonyl)-5,5-dioxidothiochromeno[4,3-c]pyrazol-1(4H)-yl]piperidin-1-yl}ethyl)ethanamine]"
3,19,"COc1ccc2c(c1)S(=O)(=O)Cc1c(C(=O)N3CCOCC3)nn([C@H]3CCCN(CCN4CCC(F)CC4)C3)c1-2 (single isomer, unassigned) [Example 384, 1-{1-[2-(4-fluoropiperidin-1-yl)ethyl]piperidin-3-yl}-7-methoxy-3-(morpholin-4-ylcarbonyl)-1,4-dihydrothiochromeno[4,3-c]pyrazole 5,5-dioxide]"
4,80,"O=C1CCCN1CCN1CCC[C@H](n2nc(C(=O)N3CCOCC3)c3c2-c2ccccc2S(=O)(=O)C3)C1 (single isomer, unassigned) [Example 440, 1-(2-{3-[3-(morpholin-4-ylcarbonyl)-5,5-dioxidothiochromeno[4,3-c]pyrazol-1(4H)-yl]piperidin-1-yl}ethyl)pyrrolidin-2-one]"
5,11,"O=C(c1nn(C2CCCN(CC3CCOCC3)C2)c2c1CS(=O)(=O)c1ccccc1-2)N1CCOCC1 (stereo not shown) [Example 305, 3-(morpholin-4-ylcarbonyl)-1-[1-(tetrahydro-2H-pyran-4-ylmethyl)piperidin-3-yl]-1,4-dihydrothiochromeno[4,3-c]pyrazole 5,5-dioxide]"
6,55,"O=C(c1nn([C@@H]2CCN(CCN3CCC(F)CC3)C2)c2c1CS(=O)(=O)c1ccccc1-2)N1CCOCC1 (single isomer, unassigned) [Example 409, 1-{1-[2-(4-fluoropiperidin-1-yl)ethyl]pyrrolidin-3-yl}-3-(morpholin-4-ylcarbonyl)-1,4-dihydrothiochromeno[4,3-c]pyrazole 5,5-dioxide]"
7,169,"O=C(c1nn(C2CCCN(CCn3cccn3)C2)c2c1CS(=O)(=O)c1ccccc1-2)N1CCOCC1 (stereo not shown) [Example 263, 3-(Morpholin-4-ylcarbonyl)-1-{1-[2-(1H-pyrazol-1-yl)ethyl]piperidin-3-yl}-1,4-dihydrothiochromeno[4,3-c]pyrazole 5,5-dioxide]"
8,230,"O=C(c1nn(-c2ccc(CN3CCC(F)(F)CC3)cc2)c2c1CS(=O)(=O)c1ccccc1-2)N1CCOCC1 [Example 268, 1-{4-[(4,4-Difluoropiperidin-1-yl)methyl]phenyl}-3-(morpholin-4-ylcarbonyl)-1,4-dihydrothiochromeno[4,3-c]pyrazole 5,5-dioxide]"
9,61,O=C(c1nn(C2CCCN(CCC3CCOCC3)C2)c2c1CS(=O)(=O)c1ncccc1-2)N1CCOCC1 (stereo not shown) [Example 408]
10,73,"NCCN1CCC[C@H](n2nc(C(=O)N3CCOCC3)c3c2-c2ccccc2S(=O)(=O)C3)C1 (single isomer, unassigned) [Example 452, 2-{3-[3-(morpholin-4-ylcarbonyl)-5,5-dioxidothiochromeno[4,3-c]pyrazol-1(4H)-yl]piperidin-1-yl}ethanamine]"
11,192,"O=C(c1nn(C2CCN(CCN3CCOCC3)C2)c2c1CS(=O)(=O)c1ccccc1-2)N1CCOCC1 (stereo not shown) [Example 275, 3-(Morpholin-4-ylcarbonyl)-1-[1-(2-morpholin-4-ylethyl)pyrrolidin-3-yl]-1,4-dihydrothiochromeno[4,3-c]pyrazole 5,5-dioxide]"

# Same assay, conditions: inhibition at 20 μM
row,SMILES,"Best potency measured on the 4 PI3K isoforms, % inh @20 μM [% inh @20 μM]"
1,CN(C)Cc1cccc2c1S(=O)(=O)Cc1c(C(=O)N3CCOCC3)nn(-c3ccccc3)c1-2 [Example 320],32
2,COc1cc(OC)cc(-n2nc(C(=O)N3CCOCC3)c3c2-c2ccccc2S(=O)(=O)C3)c1 [Example 67],54
